Each block holds one compound with its values, some of them ahead of it. Non-standard residues stand in square brackets, D forms with d. Residues, ends and D or L forms follow the SMILES beside them. *: point of attachment. Propanoyl(3-indol-3-yl) = O=C(CCc1c[nH]c2ccccc12)*; Trp(1-Me) = Cn1cc(C[C@H](N)C(=O)O)c2ccccc21; Tle = CC(C)(C)[C@H](N)C(=O)O; Ava = NCCCCC(=O)O
Tests used:
[1] = molecular target: T1, Neuropeptides B/W receptor type 1 (Homo sapiens, UniProt P48145); experiment: (§1) Agonist activity at human NPBWR1 expressed in CHO-RD-HGA16 cells measured by calcium mobilization assay; type: functional, cell-based
T1 sequence (P48145 whole entry): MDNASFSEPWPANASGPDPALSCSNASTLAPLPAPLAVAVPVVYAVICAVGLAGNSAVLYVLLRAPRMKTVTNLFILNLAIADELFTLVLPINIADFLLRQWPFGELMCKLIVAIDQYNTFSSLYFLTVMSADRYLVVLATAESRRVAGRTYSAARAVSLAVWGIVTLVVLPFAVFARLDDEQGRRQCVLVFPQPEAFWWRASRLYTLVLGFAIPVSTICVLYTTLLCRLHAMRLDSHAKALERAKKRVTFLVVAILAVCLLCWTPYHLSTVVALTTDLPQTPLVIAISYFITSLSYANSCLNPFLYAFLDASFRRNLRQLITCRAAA

[2] = molecular target: T1, Neuropeptides B/W receptor type 1; experiment: Antagonist activity at human NPBWR1 expressed in CHO-RD-HGA16 cells measured by calcium mobilization assay; type: functional, cell-based
[3] = molecular target: T2, Neuropeptides B/W receptor type 1 (Homo sapiens) (UniProt P48145); experiment: Antagonist activity at human NPBWR1 expressed in CHO-RD-HGA16 cells at 10 uM measured by calcium mobilization assay relative to control; type: functional, cell-based; design: scale not given: the % may be the effect or the level left; details: filed as antagonist
T2 sequence (whole entry): T1 sequence (P48145 whole entry)

[4] = molecular target: T2, Neuropeptides B/W receptor type 1 (Homo sapiens); experiment: Agonist activity at human NPBWR1 expressed in CHO-RD-HGA16 cells measured by calcium mobilization assay relative to control; type: functional, cell-based
[5] = molecular target: T2, Neuropeptides B/W receptor type 1 (Homo sapiens); experiment: as §1; type: functional, cell-based; details: filed as agonist
[6] = Metabolic stability in male Sprague-Dawley rat plasma assessed as compound remaining at 1 uM measured after […] by LC-MS/MS analysis; type: ADME, cell-free; details: read-out: Stability
[7] = Metabolic stability in male Sprague-Dawley rat plasma assessed as half-life at 1 uM measured after 240 mins by LC-MS/MS analysis; type: ADME, cell-free
[8] = molecular target: T1, Neuropeptides B/W receptor type 1; experiment: Agonist activity at human NPBWR1 expressed in CHO cells measured by LANCE Ultra cAMP kit-based TR-FRET assay; type: functional, cell-based

SMILES: CC(C)C[C@H](NC(=O)[C@H](CC(C)C)NC(=O)CNC(=O)[C@H](C)NC(=O)[C@@H](C)NC(=O)[C@H](CCCNC(=N)N)NC(=O)CCCCNC(=O)CCCCNC(=O)CCCCNC(=O)[C@H](CCCCN)NC(=O)[C@H](Cc1ccc(O)cc1)NC(=O)[C@@H](N)Cc1c[nH]c2ccccc12)C(N)=O
Emax [4]: 33% | EC50 [1]: 578 nM

SMILES: CCCCCCCCCCCCCCCC(=O)NCCCC[C@@H](NC(=O)[C@H](CCCCN)NC(=O)[C@H](CCCCN)NC(=O)[C@H](CCCCN)NC(=O)[C@H](Cc1ccc(O)cc1)NC(=O)[C@@H](N)Cc1c[nH]c2ccccc12)C(=O)N[C@@H](CCCCN)C(=O)NCCCCC(=O)NCC(=O)N[C@@H](CCCNC(=N)N)C(=O)N[C@@H](C)C(=O)N[C@@H](C)C(=O)NCC(=O)N[C@@H](CC(C)C)C(=O)N[C@@H](CC(C)C)C(N)=O
Activity [3]: 95%

SMILES: CC(C)C[C@H](NC(=O)CNC(=O)[C@H](CO)NC(=O)[C@H](CC(C)C)NC(=O)[C@H](CC(C)C)NC(=O)CNC(=O)[C@H](C)NC(=O)[C@H](C)NC(=O)[C@H](CCCNC(=N)N)NC(=O)CNC(=O)[C@@H](NC(=O)[C@H](CO)NC(=O)[C@H](Cc1ccc(O)cc1)NC(=O)[C@H](CO)NC(=O)[C@H](CO)NC(=O)[C@H](Cc1cnc[nH]1)NC(=O)CNC(=O)[C@H](C)NC(=O)[C@H](C)NC(=O)[C@@H]1CCCN1C(=O)[C@H](CCCCN)NC(=O)[C@H](Cc1ccc(O)cc1)NC(=O)[C@@H](N)Cc1c[nH]c2ccccc12)C(C)C)C(N)=O
remaining at 0.25 h, 1 µM [6]: 48%

SMILES: CC(C)C[C@H](NC(=O)[C@H](CC(C)C)NC(=O)CNC(=O)[C@H](C)NC(=O)[C@H](C)NC(=O)[C@H](CCCNC(=N)N)NC(=O)CNC(=O)CCCCNC(=O)CCCCNC(=O)CCCCNC(=O)[C@H](CCCCN)NC(=O)[C@H](NC(=O)[C@@H](N)Cc1c[nH]c2ccccc12)[C@@H](C)O)C(N)=O
EC50 [1]: > 10000 nM | Activity [3]: 81%

SMILES: CCCCCCCCCCCCCCCC(=O)NCCCC[C@H](NC(=O)[C@H](CCCCN)NC(=O)[C@H](CCCCN)NC(=O)[C@H](CCCCN)NC(=O)[C@H](Cc1ccc(O)cc1)NC(=O)[C@@H](N)Cc1c[nH]c2ccccc12)C(=O)N[C@@H](CCCCN)C(=O)NCCCCC(=O)NCC(=O)N[C@@H](CCCNC(=N)N)C(=O)N[C@@H](C)C(=O)N[C@@H](C)C(=O)NCC(=O)N[C@@H](CC(C)C)C(=O)N[C@@H](CC(C)C)C(N)=O
IC50 ([2]; cho-rd-hga16): 406 nM | EC50 ([1]; cho-rd-hga16): > 10000 nM

SMILES: CC(C)C[C@H](NC(=O)CNC(=O)[C@H](C)NC(=O)[C@H](C)NC(=O)[C@H](CCCNC(=N)N)NC(=O)CCCCNC(=O)CCCCNC(=O)CCCCNC(=O)[C@H](CCCCN)NC(=O)[C@H](Cc1ccc(O)cc1)NC(=O)[C@@H](N)Cc1c[nH]c2ccccc12)C(=O)N[C@H](CC(C)C)C(N)=O
Emax ([4]; filed as agonist): 57% | EC50 [1]: 463 nM

SMILES: CC(C)C[C@H](NC(=O)CNC(=O)[C@H](C)NC(=O)[C@H](C)NC(=O)[C@H](CCCNC(=N)N)NC(=O)CNC(=O)CCCCNC(=O)CCCCNC(=O)CCCCNC(=O)[C@H](CCCCN)NC(=O)[C@@H](NC(=O)[C@@H](N)Cc1c[nH]c2ccccc12)[C@@H](C)O)C(=O)N[C@H](C(N)=O)C(C)(C)C (H-WTK[Ava][Ava][Ava]GRAAGL[Tle]-NH2)
EC50 [1]: 479 nM

SMILES: CC(C)C[C@H](NC(=O)[C@H](CC(C)C)NC(=O)CNC(=O)[C@H](C)NC(=O)[C@H](C)NC(=O)[C@@H](CCCNC(=N)N)NC(=O)CCCCNC(=O)CCCCNC(=O)CCCCNC(=O)[C@H](CCCCN)NC(=O)[C@H](Cc1ccc(O)cc1)NC(=O)[C@@H](N)Cc1c[nH]c2ccccc12)C(N)=O
EC50 [1]: > 10000 nM

SMILES: CC(C)C[C@H](NC(=O)[C@H](CC(C)C)NC(=O)CNC(=O)[C@H](C)NC(=O)[C@H](C)NC(=O)[C@H](CCCNC(=N)N)NC(=O)CNC(=O)CCCCNC(=O)CCCCNC(=O)CCCCNC(=O)[C@H](CCCCN)NC(=O)[C@H](Cc1ccc(O)cc1)NC(=O)[C@H](Cc1c[nH]c2ccccc12)NC(=O)CCc1c[nH]c2ccccc12)C(N)=O ({Propanoyl(3-indol-3-yl)}-WYK[Ava][Ava][Ava]GRAAGLL-NH2)
half-life at 1 µM [7]: 39.1 min | remaining at 0.25 h, 1 µM [6]: 86% | EC50 [1]: 8 nM | EC50 [8]: 2.7 nM

Continued, values first:

EC50 [1]: 478 nM
SMILES: CC(C)C[C@H](NC(=O)CNC(=O)[C@H](C)NC(=O)[C@H](C)NC(=O)[C@H](CCCNC(=N)N)NC(=O)CNC(=O)CCCCNC(=O)CCCCNC(=O)CCCCNC(=O)[C@H](C)NC(=O)[C@H](Cc1ccc(O)cc1)NC(=O)[C@@H](N)Cc1c[nH]c2ccccc12)C(=O)N[C@@H](CO)C(=O)N[C@@H](CO)C(N)=O (H-WYA[Ava][Ava][Ava]GRAAGLSS-NH2)

IC50 [2]: 840 nM | EC50 [1]: > 10000 nM | Activity [3]: 95%
SMILES: CC(C)C[C@H](NC(=O)CNC(=O)[C@H](C)NC(=O)[C@H](C)NC(=O)[C@H](CCCNC(=N)N)NC(=O)CNC(=O)CCCCNC(=O)CCCCNC(=O)CCCCNC(=O)[C@H](C)NC(=O)[C@@H](N)Cc1c[nH]c2ccccc12)C(=O)N[C@@H](CC(C)C)C(=O)N[C@@H](CO)C(N)=O (H-WA[Ava][Ava][Ava]GRAAGLLS-NH2)

Emax [4]: 38% | EC50 [1]: 530 nM
SMILES: CC(C)C[C@H](NC(=O)[C@@H](CC(C)C)NC(=O)CNC(=O)[C@H](C)NC(=O)[C@H](C)NC(=O)[C@H](CCCNC(=N)N)NC(=O)CCCCNC(=O)CCCCNC(=O)CCCCNC(=O)[C@H](CCCCN)NC(=O)[C@H](Cc1ccc(O)cc1)NC(=O)[C@@H](N)Cc1c[nH]c2ccccc12)C(N)=O

Emax ([4]; filed as agonist): 100% | EC80 [5]: 20 nM
SMILES: CSCC[C@H](NC(=O)[C@H](CC(C)C)NC(=O)[C@H](CC(C)C)NC(=O)CNC(=O)[C@H](C)NC(=O)[C@H](C)NC(=O)[C@H](CCCNC(=N)N)NC(=O)CNC(=O)[C@@H](NC(=O)[C@@H](NC(=O)[C@H](Cc1cnc[nH]1)NC(=O)[C@H](Cc1ccc(O)cc1)NC(=O)[C@H](CCCNC(=N)N)NC(=O)[C@@H]1CCCN1C(=O)[C@H](CO)NC(=O)[C@H](C)NC(=O)[C@@H](NC(=O)[C@H](Cc1cnc[nH]1)NC(=O)[C@H](CCCCN)NC(=O)[C@H](Cc1ccc(O)cc1)NC(=O)[C@@H](N)Cc1c[nH]c2ccccc12)C(C)C)[C@@H](C)O)C(C)C)C(=O)NCC(=O)N[C@@H](CC(C)C)C(N)=O

IC50 [2]: 545 nM | EC50 [1]: > 10000 nM
SMILES: CC(C)C[C@H](NC(=O)[C@H](CC(C)C)NC(=O)CNC(=O)[C@H](C)NC(=O)[C@H](C)NC(=O)[C@H](CCCNC(=N)N)NC(=O)CNC(=O)CCCCNC(=O)CCCCNC(=O)CCCCNC(=O)[C@H](CCCCN)NC(=O)[C@H](Cc1ccc(O)cc1)NC(=O)[C@H](Cc1c[nH]c2ccccc12)NC(=O)[C@@H](N)Cc1cn(C)c2ccccc12)C(N)=O (H-[Trp(1-Me)]WYK[Ava][Ava][Ava]GRAAGLL-NH2)

EC50 [1]: > 10000 nM
SMILES: CC(C)C[C@H](NC(=O)CNC(=O)[C@H](C)NC(=O)[C@H](C)NC(=O)[C@H](C)NC(=O)CNC(=O)CCCCNC(=O)CCCCNC(=O)CCCCNC(=O)[C@H](CCCCN)NC(=O)[C@H](Cc1ccc(O)cc1)NC(=O)[C@@H](N)Cc1c[nH]c2ccccc12)C(=O)N[C@@H](CO)C(=O)N[C@@H](CO)C(N)=O (H-WYK[Ava][Ava][Ava]GAAAGLSS-NH2)
